Source: ChEMBL document CHEMBL3045194, “Neocryptolepine analogues containing N-substituted side-chains at C-11: synthesis and antischistosomicidal activity” (Med Chem Res, 2012)

How the values were obtained:
Schistosoma mansoni [1] = test: Antischistosomicidal activity against Schistosoma mansoni egyptian strain assessed as worm mortality at 5 ug/ml after 5 days by stereomicroscopy; type: functional; conditions: 120 h
Schistosoma mansoni [2] = test: Antischistosomicidal activity against Schistosoma mansoni egyptian strain assessed as worm mortality after 5 days by stereomicroscopy; type: functional, organism-based; conditions: for IC90: Schistosoma mansoni, egyptian strain, 120 h

SMILES	mortality at 5 µg/mL (Schistosoma mansoni [1])	IC50 (Schistosoma mansoni [2])	IC90 (Schistosoma mansoni [2])
Cn1c2nc3ccccc3c-2c(Cl)c2cc(Br)ccc21	25%	–	–
Cn1c2nc3ccccc3c-2c(NCCc2c[nH]c3ccccc23)c2ccccc21	100%	2.7 uM/ml	3.95 µM
Cn1c2nc3ccccc3c-2c(N2CCOCC2)c2ccccc21	66.7%	–	–
Cn1c2nc3ccccc3c-2c(NCCCO)c2cc(Br)ccc21	66.7%	–	–
Cn1c2nc3ccccc3c-2c(N2CCN(CCO)CC2)c2cc(C(F)(F)F)ccc21	25%	–	–
Cn1c2nc3ccccc3c-2c(NCCCN2CCN(CCCNc3c4c5ccccc5nc-4n(C)c4ccc(Cl)cc34)CC2)c2cc(Cl)ccc21	100%	3.42 uM/ml	5.1 µM
Cn1c2nc3ccccc3c-2c(NCCCN2CCN(CCCNc3c4c5ccccc5nc-4n(C)c4ccc(C(F)(F)F)cc34)CC2)c2cc(C(F)(F)F)ccc21	8.3%	–	–
Cn1c2nc3ccccc3c-2c(Nc2ccc(CCO)cc2)c2ccccc21	58.3%	–	–
Cn1c2nc3ccccc3c-2c(Nc2ccc(C(F)(F)F)cc2)c2ccccc21	100%	3.73 uM/ml	4.81 µM
Cn1c2nc3ccccc3c-2c(Nc2ccc(CCO)cc2)c2cc(Br)ccc21	91.7%	–	–
Cn1c2nc3ccccc3c-2c(Nc2ccccc2)c2ccccc21	100%	3.07 uM/ml	4.3 µM
CN1CCN(c2c3c4ccccc4nc-3n(C)c3ccccc23)CC1	0%	–	–
CN1CCN(c2c3c4ccccc4nc-3n(C)c3ccc(C(F)(F)F)cc23)CC1	100%	4.61 uM/ml	6.05 µM
Cn1c2nc3ccccc3c-2c(Cl)c2cc(C(F)(F)F)ccc21	91.7%	–	–
Clc1ccc2nc3[nH]c4ccccc4c3c(Cl)c2c1	0%	–	–
CCN(CC)CCCC(C)Nc1c2c3ccccc3nc-2n(C)c2ccc(Cl)cc12 (stereo not drawn)	100%	11.74 uM/ml	16.8 µM
Cn1c2nc3ccccc3c-2c(Cl)c2ccccc21 [11-CHLORONEOCRYPTOLEPINE]	75%	–	–
Cn1c2nc3ccccc3c-2cc2ccccc21 [NEOCRYPTOLEPINE]	5%	–	–
O=C(C1CCCCC1)N1CC(=O)N2CCc3ccccc3C2C1 (stereo not drawn) [PRAZIQUANTEL]	100%	0.21 uM/ml	0.37 µM
